Results on one compound are retold here after patent US20180250295A1, “Treatment of Motor and Movement Disorder Side Effects Associated with Parkinson's Disease Treatments” (Psychogenics, Inc., priority 2012, published 2018).

Series [1] relates to Parkinson's patients with L-DOPA induced dyskinesias. Nature of the series: Levodopa challenge-dose study of oral eltoprazine, dyskinesia ratings (CDRS, Rush DRS). Type of series: in vivo, human. The settings on record: for levodopa-induced dyskinesia (LID) measured by the CDRS scale: compared to placebo. The text has this: This example describes a multicenter, randomized, double-blind, placebo-controlled, dose finding study of oral eltoprazine in Parkinson's patients with L-DOPA induced dyskinesias, in a levodopa challenge-dose setting in Parkinson's Disease. A total of 22 patients participated in the study, out of which 18 patients fulfilled the protocol in terms of eligibility, interventions, and outcome assessment.
This study also assessed the safety and tolerability of eltoprazine in adults with Parkinson's Disease using the following measures: a) population mean values for the change in dyskinesia ratings between the placebo and screening baseline values and any of the eltoprazine dosages used, calculated as the peak-effect on CDRS of any study medication; b) population mean values for the change in dyskinesia ratings between the placebo and screening baseline values and any of the eltoprazine dosages used, calculated as the AuC on Rush DRS of any study medication; c) any changes in the UPDRS-III total score; d) any change in the diary data set, between the baseline and placebo and any of the three study medication tests; e) any deterioration of the HADS scores after study medication compared with placebo; f) any development of depression over the course of the study period, determined by the Montgomery Asberg Depression Rating Scale (MADRS) and clinical judgment; g) comparison between the effects on Rush Dyskinesia Rating Scale (DRS) and Clinical Dyskinesia Rating Scale (CDRS) Area under the Curve (AuC) and peak of dose effects for the three study medication dosages.
During the first visit, patients underwent screening for inclusion/exclusion criteria and safety assessments. Symptoms of parkinsonism, depression, and anxiety were assessed, and screening for significant L-DOPA dyskinesias were conducted using a challenge dose (150%) of L-DOPA. Subjects who were taking a prohibited medication were required to complete a washout period of appropriate length, as determined by the investigator. […]

Series [2] has the same test system. Description: Levodopa challenge-dose study, UPDRS-III rating of parkinsonian symptoms (L-DOPA efficacy). The format is in vivo, human. From the text: (§1) This example describes a multicenter, randomized, double-blind, placebo-controlled, dose finding study of oral eltoprazine in Parkinson's patients with L-DOPA induced dyskinesias, in a levodopa challenge-dose setting in Parkinson's Disease. A total of 22 patients participated in the study, out of which 18 patients fulfilled the protocol in terms of eligibility, interventions, and outcome assessment. […]
During each of five visits, and after a two-hour fast, each patient received a challenge dosage (150%—up to a maximum of 250 mg) of levodopa. […] The patients were periodically recorded for 180 minutes after treatment, and the videos were evaluated in a blinded manner. […]
Filming occurred 30 minutes prior to, and every 30 minutes up to 180 minutes after a challenge test of L-DOPA and study medication. […] Video taped records of each sequence were assessed by separate individual qualified raters at both of the two clinical centers.
Analyses were done on both the intention-to-treat (ITT) and per protocol (PP) population, if applicable. The change between test sessions of the highest observed Unified Parkinson's Disease Rating Scale-III (UPDRS) within each session will be calculated between the randomised placebo test session and each active test session and will be analysed with Wilcoxon Signed Rank test on the ITT population.

Series [3] shares this test system. Description: Safety and tolerability of eltoprazine in the levodopa challenge-dose study. The format is in vivo, human. The settings on record: single oral doses of 2.5 mg, 5 mg, 7.5 mg.
Source text: as §1

For series [4], the system named is 5-HT1. The settings on record: with respect to all receptors other than 5-HT1; cited from earlier work.
Series [5] concerns 5-HT1d receptor. The settings on record: compared with serotonin; cited from earlier work.
The target of series [6] is T1, 5-HT1a receptor (Homo sapiens, UniProt P08908).
T1 sequence (P08908 1-422): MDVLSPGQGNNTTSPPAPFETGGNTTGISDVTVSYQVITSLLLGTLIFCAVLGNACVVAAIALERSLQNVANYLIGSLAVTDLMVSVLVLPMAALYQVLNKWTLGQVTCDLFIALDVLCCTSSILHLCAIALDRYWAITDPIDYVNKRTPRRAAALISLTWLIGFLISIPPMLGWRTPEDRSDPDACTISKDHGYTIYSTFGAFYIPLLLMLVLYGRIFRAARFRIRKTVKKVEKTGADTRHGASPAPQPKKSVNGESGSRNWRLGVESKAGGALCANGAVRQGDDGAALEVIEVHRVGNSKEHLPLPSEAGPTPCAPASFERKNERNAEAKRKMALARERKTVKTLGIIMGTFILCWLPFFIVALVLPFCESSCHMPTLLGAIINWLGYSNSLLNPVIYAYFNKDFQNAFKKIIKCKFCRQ
The settings on record: relative to 5-HT1b; cited from earlier work.

The target of series [7] is 5-HT1b receptor (Homo sapiens, UniProt P28222). The settings on record: relative to 5-HT1a; cited from earlier work.
The test system of series [8] is dopamine receptors. The conditions noted are these: cited from earlier work.

Molecules are shown by their SMILES.

5-HT1b receptor, sequence (P28222 whole entry): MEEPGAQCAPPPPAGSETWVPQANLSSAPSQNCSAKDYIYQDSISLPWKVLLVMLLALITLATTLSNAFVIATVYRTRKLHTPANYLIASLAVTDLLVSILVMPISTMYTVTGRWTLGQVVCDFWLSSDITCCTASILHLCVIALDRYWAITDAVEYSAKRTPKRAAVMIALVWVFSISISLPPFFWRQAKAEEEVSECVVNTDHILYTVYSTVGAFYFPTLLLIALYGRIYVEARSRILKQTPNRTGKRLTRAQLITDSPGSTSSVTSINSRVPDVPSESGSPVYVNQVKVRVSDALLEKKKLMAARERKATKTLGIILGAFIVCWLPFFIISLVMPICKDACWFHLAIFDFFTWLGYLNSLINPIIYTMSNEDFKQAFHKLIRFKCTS

For the compound `c1cc2c(c(N3CCNCC3)c1)OCCO2` [eltoprazine, 1-(2,3-dihydro-1,4-benzodioxanyl-5-yl) piperazine], in series [1] (5 mg single oral dose), the “LID as measured by the Rush Scale AUC” value is recorded as “reduced LID in PD patients statistically significantly”. Also, the “levodopa-induced dyskinesia (LID) measured by the CDRS scale” value in series [1] (5 mg single oral dose, p=0.0007, L-DOPA challenge dose 150%) is “statistically significantly reduced LID”; in series [1] (7.5 mg single oral dose, p=0.0467, L-DOPA challenge dose 150%) it was “statistically significantly reduced LID”. Also, in series [2] (5 mg and 7.5 mg doses), the “L-DOPA efficacy as measured by the UPDRS score” value is reported as “did not affect L-DOPA efficacy”. Further, the “change in UPDRS-III of parkinsonian symptoms after eltoprazine administration” value in series [2] (FIG. 2) is given as “no significant change”. The serious adverse events entry in series [3] is “no serious adverse events”. Moreover, the tolerability result in series [3] is listed as “well tolerated”. Besides, the binding selectivity entry in series [4] is reported as “selective 5-HT1 ligand”. In series [5], the “affinity for the 5-HT1d receptor” value is “lower affinity for the 5-HT1d receptor”. For the same compound, in series [6], the “agonism and affinity at the 5-HT1a receptor” value is “mixed 5-HT1a/5-HT1b receptor agonist with roughly equipotent affinity”. The “agonism and affinity at the 5-HT1b receptor” value in series [7] is on record as “mixed 5-HT1a/5-HT1b receptor agonist with roughly equipotent affinity”. Moreover, the “affinity for dopamine receptors” value in series [8] is “no relevant affinity for dopamine receptors”.
